The source of these data is US20100048596A2, “Indole Derivatives as Antitumoral Compounds” (Pharma Mar, S.A., priority 2005, published 2010).

One may read the IC50 as the concentration at which inhibition is half-maximal. For orientation: GI50 means the concentration that inhibits growth by half. For orientation: CC50 means the concentration giving 50% cytotoxicity. Higher therefore signals better tolerance by the cells.

The test system of one series is P388. As to conditions: literature; cited from earlier work.
For a further series, the system named is A-549. Conditions: literature; cited from earlier work.
The next series deals with A549. The format is cell-based. Conditions: for GI50 / TGI: A549, 48 hours exposure, SRB; for TGI: total growth inhibition (cytostatic effect). The text has this: (§1) The finality of these assays is to interrupt the growth of an “in vitro” tumor cell culture by means of a continued exhibition of the cells to the sample to be testing.
(§2) Inhibition of Cell Growth by Colorimetric Assay
(§3) A colorimetric type of assay, using sulforhodamine B (SRB) reaction has been adapted for a quantitative measurement of cell growth and viability [following the technique described by Philip Skehan et al. (1990), New calorimetric cytotoxicity assay for anticancer drug screening, J. Natl. Cancer Inst., 82:1107-1112].
(§4) This form of assay employs 96 well cell culture microplates of 9 mm diameter (Faircloth et al. Methods in cell science, (1988), 11(4), 201-205; Mosmann et al, Journal of Immunological. Methods (1983), 65(1-2), 55-63). Most of the cell lines are obtained from American Type Culture Collection (ATCC) derived from different human cancer types.
(§5) Cells are maintained in RPMI 1640 10% FBS, supplemented with 0.1 g/L penicillin and 0.1 g/L streptomycin sulphate and then incubated at 37° C., 5% CO2 and 98% humidity. For the experiments, cells were harvested from subconfluent cultures using trypsin and resuspended in fresh medium before plating.
(§6) Cells are seeded in 96 well microtiter plates, at 5×10^3 cells per well in aliquots of 195 μL medium, and they are allowed to attach to the plate surface by growing in drug free medium for 18 hours. Afterward, samples are added in aliquots of 5 μL in a ranging from 10 to 10^−8 μg/mL, dissolved in DMSO:EtOH:PBS (0.5:0.5:99). After 48 hours exposure, the antitumor effect is measured by the SRB methodology: cells are fixed by adding 50 μL of cold 50% (wt/vol) trichloroacetic acid (TCA) and incubated for 60 minutes at 4° C. Plates are washed with deionised water and dried. 100 μL of SRB solution (0.4% wt/vol in 1% acetic acid) is added to each microtiter well and incubated for 10 minutes at room temperature. Unbound SRB is removed by washing with 1% acetic acid. Plates are air dried and bound stain is solubilized with Tris buffer. Optical densities are read on an automated spectrophotometric plate reader at a single wavelength of 490 nm.
(§7) The values for mean+/−SD of data from triplicate wells are calculated. Some parameters for cellular responses can be calculated: GI=growth inhibition, TGI=total growth inhibition (cytostatic effect) and LC=cell killing (cytotoxic effect).

The next series relates to HT29. The series is classed as cell-based. As to conditions: for GI50 / TGI: HT29, 48 hours exposure, SRB; for TGI: total growth inhibition (cytostatic effect).
Description: as §1, §2, §3, §4, §5, §6, §7

In another series the test system is MDA-MB-231. The series is classed as cell-based. Conditions: for GI50 / TGI: MDA-MB-231, 48 hours exposure, SRB; for TGI: total growth inhibition (cytostatic effect).
Description: as §1, §2, §3, §4, §5, §6, §7

The next series has as its system IGROV1 tumor cell line. As to conditions: Jiang et al. 2001; cited from earlier work.
The subject of the next series is CCRF-CEM cancer lines. Conditions: Jiang et al. 2001; cited from earlier work.
The next series relates to HOP-92 cancer lines. Conditions: Jiang et al. 2001; cited from earlier work.
The subject of another series is HT-29. Conditions: Sun and Sakemi 1991; cited from earlier work.

Some results are limits rather than exact numbers.

Take 6-hydroxydiscodermindole: the IC50 in the series on P388 was 4.6 µg/mL; in the series on A-549, > 5 µg/mL.
In the series with A549, `CC(=O)N=C1NCCC(c2c[nH]c3ccc(Br)cc23)N1` (single isomer, unassigned) [Compound II] showed a concentration for 50% growth inhibition (GI50) of 656 nM. Moreover, in the series on HT29, the GI50 is 388 nM and the TGI was 5.67E−7 Molar. In addition, in the series with MDA-MB-231, the CC50 turned out to be 6260 nM, the GI50 is 418 nM and the TGI stood at 1.52E−6 Molar.
In the series with A549, `COn1cc(C2CCNC(=NC(C)=O)N2)c2cc(Br)ccc21` (single isomer, unassigned) [Compound IV] returned a GI50 of 630 nM and a TGI of 7.12E−7 Molar. Besides, in the series with HT29, half-maximal cytotoxicity (CC50) was put at 767 nM, it took 329 nM to inhibit growth by half (GI50) and the TGI is 4.65E−7 Molar. In the series on MDA-MB-231, this molecule showed a CC50 of 5200 nM, a GI50 of 411 nM and a TGI of 1.37E−6 Molar.
In the series with A549, `COn1cc(C2CCNC(=NC(C)=O)N2)c2cc(Br)c(Br)cc21` (single isomer, unassigned) [Compound VI] displayed a CC50 of 1150 nM, a GI50 of 1310 nM and a TGI of 4.05E−6 Molar. In addition, in the series with HT29, the midpoint of cytotoxicity, the CC50, lay at 2480 nM; the 50% growth inhibitory concentration (GI50) was determined as 473 nM; the TGI worked out at 9.23E−7 Molar. In the series with MDA-MB-231, this molecule gave a CC50 of 4950 nM, a concentration for 50% growth inhibition (GI50) of 811 nM and a TGI of 1.98E−6 Molar.
For the molecule `COn1cc(C2CCNC(=N)N2)c2cc(Br)c(Br)cc21` (single isomer, unassigned) [Compound V], the GI50 is 8700 nM in the series on A549, 7960 nM with HT29 and 7960 nM in the series with MDA-MB-231. Moreover, the TGI with HT29 turned out to be 1.74E−5 Molar; with MDA-MB-231 it was 2.06E−5 Molar.
Take `C1=CN(c2c[nH]c3ccccc23)C(c2c[nH]c3ccccc23)N=C1` (stereo not drawn) [compound 8, 2,3-bis(3-indolyl)pyrimidine]: the GI50 with IGROV1 tumor cell line was < 10 nM.
As to `COc1nc(-c2c[nH]c3ccccc23)cnc1N` [compound 19, 2-amino-3methoxyl-5-(3′-indolyl)pyrazine], the GI50 in the series on CCRF-CEM cancer lines is 810 nM; in the series on HOP-92 cancer lines, 30 nM.
With discodermindole, the 50% inhibitory concentration (IC50) with P388 is 1.8 µg/mL; in the series with A-549, 4.6 µg/mL; in the series on HT-29, 12 µg/mL.
